For data set [1], the target named is Kappa-type opioid receptor (Homo sapiens) (UniProt P41145). The data set is described as follows: Inhibition of human kappa opioid receptor at 3 uM by radioligand binding assay.
The species named for data set [2] is Rattus norvegicus. Put plainly: Inhibition of rat Rolipram binding site at 3 uM by radioligand binding assay.
The target of data set [3] is D(2) dopamine receptor (Homo sapiens) (UniProt P14416). Put plainly: Inhibition of human dopamine D2S receptor at 3 uM by radioligand binding assay.
D(2) dopamine receptor (Homo sapiens), sequence (P14416 whole entry): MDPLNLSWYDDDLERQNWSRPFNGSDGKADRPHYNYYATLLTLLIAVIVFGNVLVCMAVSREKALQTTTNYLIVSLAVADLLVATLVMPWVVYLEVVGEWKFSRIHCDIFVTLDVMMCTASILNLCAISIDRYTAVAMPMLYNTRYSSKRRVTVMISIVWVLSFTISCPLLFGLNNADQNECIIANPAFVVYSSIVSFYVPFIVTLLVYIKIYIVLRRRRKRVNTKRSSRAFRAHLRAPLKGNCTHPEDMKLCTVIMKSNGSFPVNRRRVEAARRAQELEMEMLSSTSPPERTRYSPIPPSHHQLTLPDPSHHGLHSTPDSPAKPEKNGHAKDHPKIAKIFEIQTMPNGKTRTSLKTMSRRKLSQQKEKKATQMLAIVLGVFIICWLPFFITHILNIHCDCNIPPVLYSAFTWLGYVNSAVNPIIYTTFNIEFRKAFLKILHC
The target in data set [4] is T1, Muscarinic acetylcholine receptor M5 (Homo sapiens) (UniProt P08912).
T1 sequence (whole entry): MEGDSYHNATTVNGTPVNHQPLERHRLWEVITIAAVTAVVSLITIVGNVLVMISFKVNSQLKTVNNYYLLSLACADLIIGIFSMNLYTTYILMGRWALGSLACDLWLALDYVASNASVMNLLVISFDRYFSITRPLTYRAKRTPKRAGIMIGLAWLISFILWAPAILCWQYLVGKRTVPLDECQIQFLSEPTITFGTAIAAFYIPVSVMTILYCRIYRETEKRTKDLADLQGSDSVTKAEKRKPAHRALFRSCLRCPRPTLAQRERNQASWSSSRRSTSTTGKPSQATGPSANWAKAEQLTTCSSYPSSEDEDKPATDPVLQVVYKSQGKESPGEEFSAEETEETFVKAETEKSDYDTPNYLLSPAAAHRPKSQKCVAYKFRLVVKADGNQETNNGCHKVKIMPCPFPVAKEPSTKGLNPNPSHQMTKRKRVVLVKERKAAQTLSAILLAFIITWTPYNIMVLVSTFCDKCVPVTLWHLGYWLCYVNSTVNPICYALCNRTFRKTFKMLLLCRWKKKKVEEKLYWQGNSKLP
Put plainly: Intrinsic activity at muscarinic M5 receptor (unknown origin) at 10 uM by calcium mobilization assay. Type of data set: functional.

The target in data set [5] is T1, Muscarinic acetylcholine receptor M5 (Homo sapiens). Put plainly: Agonist activity at muscarinic M5 receptor (unknown origin) at 10 uM by calcium mobilization assay. Type of data set: functional. For orientation: Calcium flux is commonly read through the fluorescence of an indicator in the cells.
The target in data set [6] is Glucocorticoid receptor (Homo sapiens) (UniProt P04150). The data set is described as follows: Inhibition of human glucocortlicoid receptor at 3 uM by radioligand binding assay.
Glucocorticoid receptor (Homo sapiens), sequence (P04150 whole entry): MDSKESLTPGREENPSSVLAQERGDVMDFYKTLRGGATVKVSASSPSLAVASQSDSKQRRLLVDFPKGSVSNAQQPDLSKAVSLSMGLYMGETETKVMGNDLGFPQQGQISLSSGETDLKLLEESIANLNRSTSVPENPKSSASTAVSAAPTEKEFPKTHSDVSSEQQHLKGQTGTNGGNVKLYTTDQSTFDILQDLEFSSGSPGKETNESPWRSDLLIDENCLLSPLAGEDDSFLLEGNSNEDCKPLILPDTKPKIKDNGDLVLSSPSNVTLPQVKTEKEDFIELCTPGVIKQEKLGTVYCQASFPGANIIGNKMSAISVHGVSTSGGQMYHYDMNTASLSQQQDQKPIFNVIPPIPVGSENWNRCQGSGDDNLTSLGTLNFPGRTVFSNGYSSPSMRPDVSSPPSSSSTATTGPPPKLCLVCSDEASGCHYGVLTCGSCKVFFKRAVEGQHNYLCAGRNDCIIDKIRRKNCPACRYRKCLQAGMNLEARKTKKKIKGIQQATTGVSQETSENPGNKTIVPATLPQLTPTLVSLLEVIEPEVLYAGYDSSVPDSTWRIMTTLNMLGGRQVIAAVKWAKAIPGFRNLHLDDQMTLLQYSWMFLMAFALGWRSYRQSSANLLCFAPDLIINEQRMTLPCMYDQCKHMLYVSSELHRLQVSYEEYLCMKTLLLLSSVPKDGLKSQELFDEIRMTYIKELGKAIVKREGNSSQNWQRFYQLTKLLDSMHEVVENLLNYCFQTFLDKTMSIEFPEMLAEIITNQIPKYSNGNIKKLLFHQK
Data set [7] is described as follows: Oral bioavailability in dog at 1 mg/kg. In kind it is ADME, organism-based, Canis lupus familiaris. To be noted: in vivo.
Data set [8] addresses T2, Muscarinic acetylcholine receptor M1 (Homo sapiens) (UniProt P11229).
T2 sequence (whole entry): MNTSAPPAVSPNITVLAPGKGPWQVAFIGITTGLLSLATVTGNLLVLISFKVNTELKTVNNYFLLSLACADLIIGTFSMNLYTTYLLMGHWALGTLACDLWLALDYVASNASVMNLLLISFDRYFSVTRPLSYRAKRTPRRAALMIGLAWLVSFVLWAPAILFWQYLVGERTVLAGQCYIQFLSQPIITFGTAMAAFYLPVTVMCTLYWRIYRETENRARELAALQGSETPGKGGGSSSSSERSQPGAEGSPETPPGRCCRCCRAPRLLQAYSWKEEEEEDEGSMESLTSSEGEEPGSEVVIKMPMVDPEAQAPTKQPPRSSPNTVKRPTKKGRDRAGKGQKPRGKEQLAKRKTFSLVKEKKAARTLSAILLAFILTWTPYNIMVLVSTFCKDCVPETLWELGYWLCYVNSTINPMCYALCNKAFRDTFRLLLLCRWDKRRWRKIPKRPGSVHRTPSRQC
Put plainly: Intrinsic activity at muscarinic M1 receptor (unknown origin) by calcium mobilization assay. In kind it is functional.

Data set [9] has as its target Somatostatin receptor type 4 (Homo sapiens) (UniProt P31391). The data set is described as follows: Inhibition of human SST4 receptor at 3 uM by radioligand binding assay.
For data set [10], the species on record is Rattus norvegicus. The data set is described as follows: Inhibition of rat GABAA central type receptor muscimol binding site at 3 uM by radioligand binding assay.
In data set [11] the target is Adenosine receptor A2a (Homo sapiens) (UniProt P29274). The data set is described as follows: Inhibition of human adenosine A2A receptor at 3 uM by radioligand binding assay.
Adenosine receptor A2a (Homo sapiens), sequence (P29274 whole entry): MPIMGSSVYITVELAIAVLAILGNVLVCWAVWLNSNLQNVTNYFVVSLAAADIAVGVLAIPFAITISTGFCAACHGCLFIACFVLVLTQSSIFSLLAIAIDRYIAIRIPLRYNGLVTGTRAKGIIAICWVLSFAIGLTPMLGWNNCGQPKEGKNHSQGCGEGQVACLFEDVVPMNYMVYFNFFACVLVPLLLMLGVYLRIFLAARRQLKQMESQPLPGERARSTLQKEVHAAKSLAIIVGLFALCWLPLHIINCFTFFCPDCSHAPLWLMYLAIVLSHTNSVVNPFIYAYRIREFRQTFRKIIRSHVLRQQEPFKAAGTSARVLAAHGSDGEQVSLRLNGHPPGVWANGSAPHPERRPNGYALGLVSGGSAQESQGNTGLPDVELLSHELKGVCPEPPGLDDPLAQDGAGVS
Data set [12] deals with 5-hydroxytryptamine receptor 2B (Homo sapiens) (UniProt P41595). The data set is described as follows: Inhibition of human 5-HT2B receptor at 3 uM by radioligand binding assay.
5-hydroxytryptamine receptor 2B (Homo sapiens), sequence (P41595 whole entry): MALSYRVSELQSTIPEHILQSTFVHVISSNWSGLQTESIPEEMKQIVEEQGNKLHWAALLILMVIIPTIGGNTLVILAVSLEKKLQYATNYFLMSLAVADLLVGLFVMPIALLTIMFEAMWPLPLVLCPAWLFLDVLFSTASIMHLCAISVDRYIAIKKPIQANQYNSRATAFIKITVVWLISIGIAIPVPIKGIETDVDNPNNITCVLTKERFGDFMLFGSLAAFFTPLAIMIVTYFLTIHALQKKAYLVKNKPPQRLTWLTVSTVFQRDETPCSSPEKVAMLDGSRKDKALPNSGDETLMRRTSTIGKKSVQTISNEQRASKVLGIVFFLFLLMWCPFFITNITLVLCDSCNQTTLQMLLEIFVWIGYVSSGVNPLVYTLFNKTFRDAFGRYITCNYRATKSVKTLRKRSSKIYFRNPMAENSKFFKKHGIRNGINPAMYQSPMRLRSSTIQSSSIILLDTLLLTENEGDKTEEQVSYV
The species named for data set [13] is Rattus norvegicus. Put plainly: Inhibition of rat thyroid hormone receptor at 3 uM by radioligand binding assay.
Data set [14] in a line: Half life in rat at 0.25 mg/kg, iv and 2.5 mg/kg, po. In kind it is ADME, organism-based. Particulars: in vivo.
Data set [15] addresses T3, Muscarinic acetylcholine receptor M4 (Homo sapiens) (UniProt P08173).
T3 sequence (whole entry): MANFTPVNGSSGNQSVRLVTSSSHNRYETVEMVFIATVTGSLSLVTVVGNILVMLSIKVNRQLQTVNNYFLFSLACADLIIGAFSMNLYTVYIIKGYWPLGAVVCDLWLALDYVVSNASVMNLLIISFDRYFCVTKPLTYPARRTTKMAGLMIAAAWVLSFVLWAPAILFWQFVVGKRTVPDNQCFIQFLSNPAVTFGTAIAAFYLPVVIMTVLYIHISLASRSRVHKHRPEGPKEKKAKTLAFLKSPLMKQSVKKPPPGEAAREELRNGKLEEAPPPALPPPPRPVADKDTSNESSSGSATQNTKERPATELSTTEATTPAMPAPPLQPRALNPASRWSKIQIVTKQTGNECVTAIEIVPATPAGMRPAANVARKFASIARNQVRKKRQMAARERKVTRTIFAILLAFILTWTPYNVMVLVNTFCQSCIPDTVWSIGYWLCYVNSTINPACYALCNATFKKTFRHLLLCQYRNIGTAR
The data set is described as follows: Agonist activity at muscarinic M4 receptor (unknown origin) at 0.3 uM by calcium mobilization assay. In kind it is functional.

Data set [16] in a line: Blood brain barrier penetration in rat at 0.25 mg/kg, iv and 2.5 mg/kg, po. Type of data set: ADME, organism-based.
A short description of data set [17]: Lipophilicity, log P of the compound. Type of data set: physicochemical. Particulars: octanol/water.
The target of data set [18] is Histamine H1 receptor (Homo sapiens) (UniProt P35367). Put plainly: Inhibition of human histamine H1 receptor at 3 uM by radioligand binding assay.
Histamine H1 receptor (Homo sapiens), sequence (P35367 whole entry): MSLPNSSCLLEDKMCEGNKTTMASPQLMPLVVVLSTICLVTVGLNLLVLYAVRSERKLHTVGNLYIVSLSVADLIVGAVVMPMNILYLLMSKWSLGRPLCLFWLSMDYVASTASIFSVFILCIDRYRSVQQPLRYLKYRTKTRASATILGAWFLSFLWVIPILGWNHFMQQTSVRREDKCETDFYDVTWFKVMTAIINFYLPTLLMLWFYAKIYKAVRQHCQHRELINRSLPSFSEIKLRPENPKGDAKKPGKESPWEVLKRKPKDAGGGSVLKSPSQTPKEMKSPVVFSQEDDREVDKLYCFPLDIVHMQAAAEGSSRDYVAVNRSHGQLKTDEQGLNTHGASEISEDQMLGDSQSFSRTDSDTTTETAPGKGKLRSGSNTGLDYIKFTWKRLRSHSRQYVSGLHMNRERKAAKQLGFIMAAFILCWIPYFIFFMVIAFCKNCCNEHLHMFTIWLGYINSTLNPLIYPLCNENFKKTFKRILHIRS
For data set [19], the target named is Adenosine receptor A3 (Homo sapiens) (UniProt P0DMS8). Put plainly: Inhibition of human adenosine A3 receptor at 3 uM by radioligand binding assay.
Adenosine receptor A3 (Homo sapiens), sequence (P0DMS8 whole entry): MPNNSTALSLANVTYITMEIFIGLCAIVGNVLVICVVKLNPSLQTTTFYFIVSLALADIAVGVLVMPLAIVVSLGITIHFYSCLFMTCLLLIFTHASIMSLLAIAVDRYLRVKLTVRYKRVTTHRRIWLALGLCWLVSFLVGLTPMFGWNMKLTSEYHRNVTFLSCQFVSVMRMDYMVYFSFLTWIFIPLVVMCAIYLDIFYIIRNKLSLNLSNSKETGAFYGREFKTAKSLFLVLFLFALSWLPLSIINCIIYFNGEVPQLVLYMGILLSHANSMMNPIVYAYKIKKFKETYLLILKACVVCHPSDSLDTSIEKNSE
The target in data set [20] is T4, Muscarinic acetylcholine receptor M2 (Homo sapiens) (UniProt P08172).
T4 sequence (whole entry): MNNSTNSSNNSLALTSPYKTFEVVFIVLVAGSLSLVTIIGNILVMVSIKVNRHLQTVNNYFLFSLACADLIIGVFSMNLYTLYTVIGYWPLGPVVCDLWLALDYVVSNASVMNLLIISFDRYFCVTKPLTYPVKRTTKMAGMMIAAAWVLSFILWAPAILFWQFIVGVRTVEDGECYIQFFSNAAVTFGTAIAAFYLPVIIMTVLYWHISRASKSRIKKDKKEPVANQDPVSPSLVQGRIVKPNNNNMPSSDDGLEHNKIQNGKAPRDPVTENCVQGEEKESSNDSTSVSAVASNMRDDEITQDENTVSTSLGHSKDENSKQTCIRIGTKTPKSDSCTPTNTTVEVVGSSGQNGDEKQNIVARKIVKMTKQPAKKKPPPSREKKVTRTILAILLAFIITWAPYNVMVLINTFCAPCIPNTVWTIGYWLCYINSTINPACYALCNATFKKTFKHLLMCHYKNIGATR
Put plainly: Intrinsic activity at muscarinic M2 receptor (unknown origin) at 10 uM by calcium mobilization assay. In kind it is functional.

The species entered for data set [21] is Oryctolagus cuniculus. Put plainly: Inhibition of rabbit purinergic P2X receptor at 3 uM by radioligand binding assay.

One may read the inhibition as the change of the read-out against control, counted positive when it falls. Usually bioavailability stands for the share of a dose that reaches the circulation, judged against a reference dose that is usually intravenous. The term half-life denotes how long it takes for the measured level to halve. High values mean slow loss, low ones fast loss. A word on the Kp: it is tissue or fluid exposure divided by exposure in the circulation. The term logP denotes the decadic logarithm of the partition coefficient of the neutral form, usually between octanol and water. Higher therefore signals higher lipophilicity.

Somatostatin receptor type 4 (Homo sapiens), sequence (P31391 whole entry): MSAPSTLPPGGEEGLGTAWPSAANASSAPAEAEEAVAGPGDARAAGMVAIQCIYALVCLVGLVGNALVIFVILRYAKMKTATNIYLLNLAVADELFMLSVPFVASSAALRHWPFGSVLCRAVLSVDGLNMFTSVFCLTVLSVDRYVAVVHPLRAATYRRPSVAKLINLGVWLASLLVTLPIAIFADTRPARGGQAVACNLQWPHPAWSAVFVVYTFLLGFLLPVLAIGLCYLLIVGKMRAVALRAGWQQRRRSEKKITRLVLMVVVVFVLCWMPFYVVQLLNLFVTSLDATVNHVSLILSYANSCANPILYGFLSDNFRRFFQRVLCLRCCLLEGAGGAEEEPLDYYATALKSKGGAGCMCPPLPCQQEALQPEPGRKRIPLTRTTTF
Kappa-type opioid receptor (Homo sapiens), sequence (P41145 whole entry): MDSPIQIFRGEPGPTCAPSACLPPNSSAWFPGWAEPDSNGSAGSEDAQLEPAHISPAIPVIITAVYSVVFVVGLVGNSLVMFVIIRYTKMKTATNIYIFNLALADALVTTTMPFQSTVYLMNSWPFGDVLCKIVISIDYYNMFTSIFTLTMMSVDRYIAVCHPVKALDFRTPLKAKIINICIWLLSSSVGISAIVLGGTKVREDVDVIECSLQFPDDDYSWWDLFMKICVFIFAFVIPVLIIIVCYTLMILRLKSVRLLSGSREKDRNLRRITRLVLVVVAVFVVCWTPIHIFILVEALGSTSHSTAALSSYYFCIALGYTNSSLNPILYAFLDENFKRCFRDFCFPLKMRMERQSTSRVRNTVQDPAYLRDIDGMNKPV

As to `CCOC(=O)N1CCC(CN2CCC3(CC2)CN(C(=O)N(C)C)c2ncccc23)CC1.O=C(O)/C=C/C(=O)O`, the inhibition is 7% in [1]; 16% in [2]; 2% in [3]; 15% in data set [6]; -10% in [9]; 2% in [10]. Besides, the inhibition in data set [11] is 7%; in [12], 11%; in data set [13] it was 4%; in [18] it was -2%; in data set [19], -8%; in data set [21], 3%. The values for the Intrinsic activity in data set [4], in data set [8] and in data set [20] were 11%, 76% and 5%, respectively. In addition, the Activity is 11% in [5] and 118% in data set [15]. Moreover, the bioavailability in data set [7] stood at 49.3%. In [14], this molecule showed a half-life of 54 min. Besides, the Kp in [16] came to 0.7. This molecule had a logP in [17] of 1.3.

The record behind these values is ChEMBL document CHEMBL3351422, “Discovery of N-substituted 7-azaindoline derivatives as potent, orally available M1 and M4 muscarinic acetylcholine receptors selective agonists” (Bioorg Med Chem Lett, 2014).
